ChEMBL document CHEMBL5357052, “Diastereomers of Steroidal Alkaloids with Cytotoxic Activities against Non-Small-Cell Lung Cancer from the Bulbs of Fritillaria sinica” (2024)

Experiments:
Assay type in all cases: functional
RAW264.7 = assay: Antiinflammatory activity in mouse RAW264.7 cells assessed as inhibition of LPS induced NO production at 10 uM preincubated for 24 hrs followed by LPS stimulation and measured after 24 hrs by Griess assay relative to control; design: scale not given: the % may be the effect or the level left; conditions: time 48 hrs
NCI-H460 = assay: Cytotoxicity against human NCI-H460 cells assessed as reduction in cell growth incubated for 48 hrs by CCK8 method
H9c2 = assay: Antioxidant activity against H2O2 treated rat H9c2 cells assessed as inhibition of MDA level at 10 uM incubated for 4 hrs followed by H2O2 administration by colorimetric assay relative to control; design: scale not given: the % may be the effect or the level left
A549 = assay: Cytotoxicity against human A549 cells assessed as reduction in cell growth incubated for 48 hrs by CCK8 method

SMILES	Activity (RAW264.7)	CC50 (NCI-H460)	Activity (H9c2)	CC50 (A549)
C[C@H]1CC[C@H]2[C@H](C)[C@H]3CC[C@@H]4[C@@H](C[C@H]5[C@H]4C[C@@H](O)[C@H]4C[C@@H](O)CC[C@@]45C)[C@@H]3CN2C1	8.3%	10 µM	38%	19 µM
C[C@H]1CC[C@H]2[C@H](C)[C@@H]3CC[C@@H]4[C@@H](C[C@H]5[C@H]4CC(=O)[C@H]4C[C@@H](O)CC[C@@]45C)[C@@H]3CN2C1	23%	46 µM	39%	30 µM
C[C@H]1CC[C@H]2[C@H](C)[C@H]3CC[C@@H]4[C@@H](C[C@H]5[C@H]4CC(=O)[C@H]4C[C@@H](O)CC[C@@]45C)[C@@H]3CN2C1	42%	37 µM	34%	22 µM
C[C@@H]1CC[C@H]2[C@H](C)[C@H]3CC[C@@H]4[C@@H](C[C@H]5[C@H]4C[C@H](O)[C@H]4C[C@@H](O)CC[C@@]45C)[C@H]3C[N+]2([O-])C1 (stereo not given in full)	40%	45 µM	15%	38 µM
C[C@@H]1CC[C@H]2[C@H](C)[C@H]3CC[C@@H]4[C@@H](C[C@H]5[C@H]4CC(=O)[C@H]4C[C@@H](O)CC[C@@]45C)[C@H]3C[N+]2([O-])C1 (stereo not given in full)	1.4%	11 µM	39%	9.5 µM
C[C@H]1CC[C@H]2[C@H](C)[C@H]3CC[C@@H]4[C@@H](C[C@H]5[C@H]4C[C@H](O)[C@H]4C[C@@H](O)CC[C@@]45C)[C@@H]3CN2C1	57%	20 µM	29%	11 µM
C[C@@H]1CC[C@H]2[C@H](C)[C@H]3CC[C@@H]4[C@@H](C[C@H]5[C@H]4C[C@H](O)[C@H]4C[C@@H](O)CC[C@@]45C)[C@@H]3C[N+]2([O-])C1 (stereo not given in full)	24%	45 µM	48%	35 µM
C[C@@H]1CC[C@H]2[C@H](C)[C@H]3CC[C@@H]4[C@@H](C[C@H]5[C@H]4C[C@H](O)[C@H]4C[C@@H](O)CC[C@@]45C)[C@@H]3CN2C1	7.9%	40 µM	15%	23 µM
C[C@@H]1CC[C@H]2[C@H](C)[C@H]3CC[C@@H]4[C@@H](C[C@H]5[C@H]4CC(=O)[C@H]4C[C@@H](O[C@@H]6O[C@H](CO)[C@@H](O)[C@H](O)[C@H]6O)CC[C@@]45C)[C@H]3CN2C1	7.8%	59 µM	53%	19 µM
C[C@@H]1CC[C@H]2[C@H](C)[C@@H]3CC[C@@H]4[C@@H](C[C@H]5[C@H]4CC(=O)[C@H]4C[C@@H](O)CC[C@@]45C)[C@@H]3CN2C1	47%	37 µM	21%	31 µM
C[C@H]1CC[C@H]2[C@H](C)c3ccc4c(c3CN2C1)C[C@H]1[C@H]4C[C@H](O)[C@H]2C[C@@H](O)CC[C@@]21C	2.1%	65 µM	43%	34 µM
C[C@@H]1CC[C@H]2[C@H](C)[C@H]3CC[C@@H]4[C@@H](C[C@H]5[C@H]4CC(=O)[C@H]4C[C@@H](O)CC[C@@]45C)[C@@H]3CN2C1	-1.3%	49 µM	20%	29 µM
CC1=C2C[C@H]3[C@@H](CC(=O)[C@H]4C[C@@H](O)CC[C@@]43C)[C@@H]2CC[C@]12O[C@@H]1C[C@H](C)CN[C@H]1[C@H]2C	66%	17 µM	72%	9.6 µM
C[C@@H]1CC[C@H]2[C@@H](C)[C@H]3CC[C@@H]4[C@@H](C[C@H]5[C@H]4CC(=O)[C@H]4C[C@@H](O[C@@H]6O[C@H](CO)[C@@H](O)[C@H](O)[C@H]6O)CC[C@@]45C)[C@@H]3CN2C1	6.1%	54 µM	24%	39 µM
C[C@@H]1CC[C@H]2[C@H](C)c3ccc4c(c3CN2C1)C[C@H]1[C@H]4C[C@H](O)[C@H]2C[C@@H](O)CC[C@@]21C	45%	65 µM	58%	52 µM
CC1=C2C[C@H]3[C@@H](CC(=O)[C@H]4C[C@H](O)CC[C@@]43C)[C@@H]2CC[C@]12O[C@@H]1C[C@H](C)CN[C@H]1[C@H]2C	73%	29 µM	53%	15 µM
C[C@H]1CC[C@@H]2[C@H](C)[C@@H]3CC[C@@H]4[C@@H](C[C@H]5[C@H]4CC(=O)[C@H]4C[C@@H](O)CC[C@@]45C)[C@@H]3CN2C1	62%	25 µM	5.4%	6.8 µM
C[C@@H]1CC[C@H]2[C@H](C)[C@H]3CC[C@@H]4[C@@H](C[C@H]5[C@H]4CC(=O)[C@H]4C[C@@H](O)CC[C@@]45C)[C@H]3CN2C1	44%	54 µM	24%	43 µM
C[C@@H]1CC[C@H]2[C@H](C)[C@H]3CC[C@@H]4[C@@H](C[C@H]5[C@H]4CC(=O)[C@H]4C[C@@H](O)CC[C@@]45C)[C@@H]3C[N+]2([O-])C1 (stereo not given in full)	0.9%	37 µM	29%	21 µM
C[C@H]1CC[C@@H]2[C@H](C)[C@@H]3CC[C@@H]4[C@@H](C[C@H]5[C@H]4C[C@@H](O)[C@H]4C[C@@H](O)CC[C@@]45C)[C@@H]3CN2C1	27%	12 µM	33%	10 µM
